Data taken from patent US11655308B2, “HM-3 fusion protein and application thereof” (TASLY BIOPHARMACEUTICALS CO., LTD., priority 2017, dated 2023).
Where two headings read alike, the source gives them in different places.

What was measured:
human macrophage U937 = assay: TNF-α production by LPS-induced human macrophage U937 (ELISA); assay type: cell-based
Method: Experimental method: Human macrophage U937 was cultured in RPMI-1640 medium containing 10% fetal bovine serum and double antibodies in a constant temperature incubator at 37° C. under the condition of 5% CO2, and the medium was replaced every 2 days. U937 cells in the logarithmic phase were collected, resuspended and adjusted to the concentration of 5×10^5/mL. 100 μL of cells was added to each well of a 96-well plate overnight and induced with LPS (1 μg/mL) in the following day, where n=3. At the same time, the cells were treated with agents, and respectively divided into a positive control group adalimumab, an HM-3 polypeptide group, an mPEG-SC-HM-3 polypeptide group, an HM-3 fusion protein (TSL-1, TSL-2, TSL-3, TSL-4) group, and the specific dosing scheme was shown in Table 5.
48 h after the agents worked, culture medium was collected and centrifuged, and supernatant was taken to measure the content of TNF-α therein by ELISA. Test results were expressed as mean±SD, and statistical T test was performed. *P<0.05 indicates significant difference, **P<0.01 indicates extremely significant difference. Based upon the results, the efficacy of the HM-3 fusion protein against rheumatoid arthritis was screened.

[1] = rat, in vivo, sc
Method: (1) 18 SD rats (half male and half female) were purchased and fed for one week.
(2) Rats were divided into 3 groups, half male and half female, and weight of rats were recorded respectively.
The blood was centrifuged at 12000 rpm/min to take 200 μL of supernatant, then the supernatant was diluted with PBS solution according to a ratio of 1:3, and finally placed in an EP tube and stored in a −80° C. refrigerator.
(4) Biological samples were measured by double-antibody sandwich ELISA.
(1) Coating, HM-3 monoclonal antibody was diluted with a coating buffer (CBS) in certain concentration, added to an ELISA plate and coated overnight.
(2) Plate washing, the coating buffer was discarded, and the plate was washed by PBST for 3 times, and then dried by patting.
(3) Sealing, a blocking buffer was added for sealing at 37.5° C., the plate washing process was repeated and the plate was dried by patting.
(4) Addition of samples to be measured, the samples to be measured were added to the ELISA plate with multiple wells, and then incubated at 37.5° C.; the plate washing process was repeated and the plate was dried by patting.
(5) Addition of a secondary antibody, the secondary antibody diluted proportionally was added for incubation at 37.5° C. The plate washing process was repeated and the plate was dried by patting.
(6) Addition of the enzyme-labeled secondary antibody for reaction, the HRP-labeled secondary antibody which was diluted by 5% skim milk powder solution according to certain proportion was added for incubation at 37.5° C. The plate washing process was repeated and the plate was dried by patting.
(7) Addition of a substrate, a TMB substrate in certain volume L was added for reaction in the dark.
(8) Termination of the reaction, a certain amount of stop buffer was added to terminate the reaction.
(9) Detection, read OD450 nm with a microplate reader.

type-II CIA mice = assay: Chronic inflammation model of type-II CIA in mice; assay type: in vivo, Balb/c mice; conditions: for ankle width / arthritis scoring / paw circumference / weight of mice / paw weight / spleen weight: day 60; for ankle width: model G2 4.83±0.20; for arthritis scoring: model G2 11.5±1.7; for paw circumference: model G2 13.62; for weight of mice: model G2 19.5±1.6; for paw weight: model G2 219.3±20.6; for spleen weight: model G2 114.6±14.5
Method: Experimental method: Balb/c mice were taken and immunized for the first time. The concentration of type-II bovine collagen was 4 mg/mL. On the day of the experiment (day 0), complete Freund's adjuvant (CFA) and CII solution were mixed evenly in equal volume and emulsified. Excepting for the normal control group of Balb/c mice, mice in each group were sensitized by intracutaneous injection of 50 μL emulsifier at the end of tails. 21 days later, mice were re-immunized with the same dose of emulsifier at the end of tails, and incomplete Freund's adjuvant (IFA) served as an adjuvant at this time. Redness and swelling other arthritic symptoms appeared on toe joints of mice models approximately on the 29th day of the experiment, indicating successful modeling.
Animals in the modeling group on the 30th day of the experiment were randomly divided into:
There were 12 groups in total, and there were 8 pieces of mice in remaining each group excepting for 12 pieces in G1 (normal control group) and G2 (model group).
Measurement of mice weight: mice were weighed by an electronic balance every two days.
Measurement of sole thickness: the thickness of left, right and hind soles for each mouse was measured by a vernier caliper every two days.
Measurement of ankle joint width: the width of left and right ankle joints for each mouse was measured by vernier caliper every two days.
Arthritis index (AI) score: the severity of arthritis for each mouse was evaluated by a paw joint scoring method. 0: no redness and swelling; 1: redness and swelling of little toe joints; 2: redness and swelling of toe joints and toes; 3: redness and swelling of the portion below ankle joints; 4: redness and swelling of toe joints, toes and ankle joints. Scoring was performed once every two days until the end of the experiment.
Blood was collected from the orbit and serum was separated. After mice were killed by cervical dislocation, spleen and thymus were separated and weighed to calculate a spleen coefficient, and then the spleen and thymus were fixed in formalin stationary liquid.

[2] = G6 TSL-4 50 mg/kg SC 1 time/5 d, 3 times
[3] = G7 TSL-4 25 mg/kg SC 1 time/5 d, 3 times
[4] = G8 TSL-4 25 mg/kg SC 1 time/7 d, 2 times
[5] = G10 TSL-4 12.5 mg/kg SC 1 time/5 d, 3 times

What does the source list for mIgG4-Fc-(GGGGS)3-HM-3 [TSL-4]?
inhibitory effect on TNF-α compared with HM-3 and mPEG-SC-HM-3 (human macrophage U937): much better than that of polypeptide HM-3 and mPEG-SC-HM-3; TNF-α content in cell supernatant (human macrophage U937; 9 μM, LPS 1 μg/mL, 48 h, negative group 77.6±19.6): 22.2 ± 8.9 pg/mL; Vd/F ([1]; 4.17 mg/kg): 4.200 L/kg; Vd/F ([1]; 12.5 mg/kg): 3.177 L/kg; Vd/F ([1]; 37.5 mg/kg): 4.967 L/kg; ankle width (type-II CIA mice; [2]): 3.96±0.09 mm; arthritis scoring (type-II CIA mice; [2]): 6.5±1.1; paw circumference (type-II CIA mice; [2]): 10.80±0.26 mm; weight of mice (type-II CIA mice; [2]): 20.8 ± 1.8 g; paw weight (type-II CIA mice; [2]): 176.2 ± 8.9 mg; ankle width (type-II CIA mice; [3]): 3.98±0.08 mm; arthritis scoring (type-II CIA mice; [3]): 6.6±1.1; paw circumference (type-II CIA mice; [3]): 10.87±0.14 mm; weight of mice (type-II CIA mice; [3]): 21.1 ± 1.6 g; spleen weight (type-II CIA mice; [3]): 95.1 ± 9.5 mg; paw weight (type-II CIA mice; [3]): 176.4 ± 9.7 mg; ankle width (type-II CIA mice; [4]): 4.00±0.16 mm; arthritis scoring (type-II CIA mice; [4]): 7.1±0.6; paw circumference (type-II CIA mice; [4]): 10.97±0.32 mm; weight of mice (type-II CIA mice; [4]): 20.8 ± 1.7 g; spleen weight (type-II CIA mice; [4]): 95.8 ± 11.4 mg; paw weight (type-II CIA mice; [4]): 177.1 ± 7.8 mg; ankle width (type-II CIA mice; [5]): 4.26±0.13 mm; arthritis scoring (type-II CIA mice; [5]): 8.6±1.8; paw circumference (type-II CIA mice; [5]): 11.64±0.19 mm; weight of mice (type-II CIA mice; [5]): 21.5 ± 1.5 g; spleen weight (type-II CIA mice; [5]): 97.5 ± 5.1 mg; therapeutic effect compared with group G3 (positive Adalimumab group) (type-II CIA mice; groups G4 (HM-3), G10 (TSL-4 12.5 mg/kg once for 5 days, 3 times)): slightly lower than that of the group G3; therapeutic effect compared with group G3 (positive Adalimumab group) (type-II CIA mice; groups G5 (mPEG-SC-HM-3), G6, G7, G8 (TSL-4)): better than the group G3
